From ChEMBL document CHEMBL1201862, “PubChem BioAssay data set” (2004)
Calls of active or inactive are those of the source.

Columns and labels:
Protein Tat = target: T1, Protein Tat (Human immunodeficiency virus type 1 group M subtype B (isolate HXB2)(HIV-1), UniProt P04608); assay type: functional;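 note: tat binding to TAR RNA read out by fluorescence polarization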
T1 sequence (P04608 whole entry): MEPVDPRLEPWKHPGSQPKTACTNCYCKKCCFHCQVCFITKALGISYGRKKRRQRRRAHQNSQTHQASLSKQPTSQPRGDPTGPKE

[1] = target: T2, RNA-binding protein pos-1 (Caenorhabditis elegans, UniProt G5EF15); assay: inhibitors of POS-1/mex-3 RNA binding, dose response, biochemical, fluorescence polarization (AID 1964);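 note: purified POS-1 fused to maltose binding protein made in E. coli; potency of compounds blocking POS-1 binding to fluorescent RNA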
T2 sequence (G5EF15 whole entry): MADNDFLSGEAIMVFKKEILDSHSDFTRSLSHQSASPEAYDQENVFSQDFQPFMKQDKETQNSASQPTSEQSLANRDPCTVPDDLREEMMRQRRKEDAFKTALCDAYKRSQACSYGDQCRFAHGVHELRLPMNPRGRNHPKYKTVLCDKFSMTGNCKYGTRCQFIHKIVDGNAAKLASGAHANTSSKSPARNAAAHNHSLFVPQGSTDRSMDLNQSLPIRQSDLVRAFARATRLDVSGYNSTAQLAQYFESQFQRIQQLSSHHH

[2] = target: DNA dC->dU-editing enzyme APOBEC-3G (Homo sapiens, UniProt Q9HC16); assay type: functional;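 note: Dose-response counterscreen measuring inhibition of APOBEC3G DNA deaminase activity, run while confirming APOBEC3A inhibitors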
Sequence of DNA dC->dU-editing enzyme APOBEC-3G (Q9HC16 whole entry, the tested form may be a part): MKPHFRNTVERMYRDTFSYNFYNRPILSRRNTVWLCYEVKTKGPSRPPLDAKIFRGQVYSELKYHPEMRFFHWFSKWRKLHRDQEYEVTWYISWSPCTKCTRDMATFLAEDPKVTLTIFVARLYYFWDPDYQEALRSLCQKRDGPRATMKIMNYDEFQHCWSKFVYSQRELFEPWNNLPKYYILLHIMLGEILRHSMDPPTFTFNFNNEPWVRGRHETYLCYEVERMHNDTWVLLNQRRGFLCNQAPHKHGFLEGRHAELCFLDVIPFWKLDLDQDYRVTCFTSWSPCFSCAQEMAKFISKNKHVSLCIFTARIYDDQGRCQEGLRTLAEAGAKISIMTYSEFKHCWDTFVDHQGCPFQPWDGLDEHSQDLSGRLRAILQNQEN

[3] = target: T3, Carboxy-terminal domain RNA polymerase II polypeptide A small phosphatase 1 (Homo sapiens, UniProt Q9GZU7); assay: inhibitors of CTDSP1, concentration-response testing, biochemical assay, absorbance-based, actives from ultra-high-throughput screening (AID 540297); assay type: functional
T3 sequence (Q9GZU7 whole entry): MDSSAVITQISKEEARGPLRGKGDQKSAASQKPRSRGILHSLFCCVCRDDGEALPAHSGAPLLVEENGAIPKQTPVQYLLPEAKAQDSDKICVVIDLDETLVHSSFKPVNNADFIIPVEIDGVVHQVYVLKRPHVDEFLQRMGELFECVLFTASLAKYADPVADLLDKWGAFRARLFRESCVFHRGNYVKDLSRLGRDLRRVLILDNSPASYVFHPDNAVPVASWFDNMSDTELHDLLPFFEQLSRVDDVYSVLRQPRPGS

[4] = target: T4, Zinc finger protein mex-5 (Caenorhabditis elegans, UniProt Q9XUB2); assay: MEX-5/TCR-2 RNA interaction inhibitors, dose response, biochemical, C. elegans, fluorescence polarization (AID 1960)
T4 sequence (Q9XUB2 whole entry): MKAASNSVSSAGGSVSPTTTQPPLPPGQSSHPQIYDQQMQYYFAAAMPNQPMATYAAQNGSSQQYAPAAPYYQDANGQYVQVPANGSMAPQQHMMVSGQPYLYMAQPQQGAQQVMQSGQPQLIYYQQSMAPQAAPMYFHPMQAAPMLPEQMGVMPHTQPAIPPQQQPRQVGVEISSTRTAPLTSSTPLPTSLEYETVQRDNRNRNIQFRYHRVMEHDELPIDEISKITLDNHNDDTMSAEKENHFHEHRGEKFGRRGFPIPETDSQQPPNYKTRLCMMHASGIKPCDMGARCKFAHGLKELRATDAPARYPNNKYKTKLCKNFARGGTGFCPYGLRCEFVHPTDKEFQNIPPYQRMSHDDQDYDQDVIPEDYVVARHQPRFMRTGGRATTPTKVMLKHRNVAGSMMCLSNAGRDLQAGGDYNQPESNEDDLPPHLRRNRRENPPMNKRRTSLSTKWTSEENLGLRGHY

Large T antigen = Large T antigen (Simian virus 40, UniProt P03070); assay type: functional, Betapolyomavirus macacae;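 note: Confirmatory-stage PubChem screen for compounds that inhibit SV40 T antigen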
Sequence of Large T antigen (P03070 whole entry): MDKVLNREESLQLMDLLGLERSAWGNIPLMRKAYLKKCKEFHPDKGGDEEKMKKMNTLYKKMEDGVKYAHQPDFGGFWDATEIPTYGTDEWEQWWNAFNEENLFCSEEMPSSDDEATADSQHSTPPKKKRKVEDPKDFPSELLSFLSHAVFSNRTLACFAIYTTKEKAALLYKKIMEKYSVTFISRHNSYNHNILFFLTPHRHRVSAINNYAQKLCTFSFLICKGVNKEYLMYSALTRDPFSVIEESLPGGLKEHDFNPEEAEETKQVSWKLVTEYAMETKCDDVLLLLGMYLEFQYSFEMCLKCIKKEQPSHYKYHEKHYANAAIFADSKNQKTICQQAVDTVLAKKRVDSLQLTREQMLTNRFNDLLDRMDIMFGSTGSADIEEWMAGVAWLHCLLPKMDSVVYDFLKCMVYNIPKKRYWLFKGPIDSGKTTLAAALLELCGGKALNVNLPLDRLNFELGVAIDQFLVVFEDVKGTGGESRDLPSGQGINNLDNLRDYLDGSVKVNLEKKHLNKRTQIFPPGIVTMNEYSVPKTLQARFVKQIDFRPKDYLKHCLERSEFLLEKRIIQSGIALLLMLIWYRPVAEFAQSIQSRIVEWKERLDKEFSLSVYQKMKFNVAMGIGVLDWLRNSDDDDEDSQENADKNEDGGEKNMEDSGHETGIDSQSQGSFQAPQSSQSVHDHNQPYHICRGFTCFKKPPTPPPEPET

[5] = target: DNA dC->dU-editing enzyme APOBEC-3A (Homo sapiens, UniProt P31941); assay: Dose Response confirmation of small molecule APOBEC3A DNA Deaminase Inhibitors via a fluorescence-based single-stranded DNA deaminase assay. [Related pubchem assays (depositor defined):AID493011, AID493024]; assay type: functional
Sequence of DNA dC->dU-editing enzyme APOBEC-3A (P31941 whole entry): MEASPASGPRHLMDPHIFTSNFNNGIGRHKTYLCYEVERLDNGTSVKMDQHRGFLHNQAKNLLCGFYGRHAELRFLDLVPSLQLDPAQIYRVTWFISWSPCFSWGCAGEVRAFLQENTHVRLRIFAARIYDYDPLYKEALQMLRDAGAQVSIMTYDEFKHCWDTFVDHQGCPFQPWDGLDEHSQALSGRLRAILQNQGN

[6] = target: T5, Adenosylmethionine-8-amino-7-oxononanoate aminotransferase (Mycobacterium tuberculosis, UniProt P9WQ81); assay: Mycobacterium tuberculosis BioA enzyme inhibitor Measured in Biochemical System Using Plate Reader - 2163-02_Inhibitor_Dose_CherryPick_Activity.; assay type: functional, Mycobacterium tuberculosis UT205
T5 sequence (P9WQ81 whole entry): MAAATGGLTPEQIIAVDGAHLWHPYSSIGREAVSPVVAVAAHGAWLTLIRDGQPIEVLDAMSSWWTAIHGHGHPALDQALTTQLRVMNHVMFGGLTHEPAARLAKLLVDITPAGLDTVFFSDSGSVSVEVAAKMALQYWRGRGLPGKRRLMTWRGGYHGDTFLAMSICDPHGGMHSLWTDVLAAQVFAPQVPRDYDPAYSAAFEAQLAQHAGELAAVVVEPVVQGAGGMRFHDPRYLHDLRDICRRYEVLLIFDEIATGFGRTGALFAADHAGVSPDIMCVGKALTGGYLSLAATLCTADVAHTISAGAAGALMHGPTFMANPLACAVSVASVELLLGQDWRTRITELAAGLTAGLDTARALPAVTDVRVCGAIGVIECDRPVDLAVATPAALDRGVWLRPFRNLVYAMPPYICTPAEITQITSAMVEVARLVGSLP

[7] = NIH-3T3 fibroblast cytotoxicity, dose response, cytotoxicity control, cell-based, fluorescence, Alamar Blue, secondary assay (AID 2327); assay type: functional;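 note: NIH-3T3 mouse fibroblasts cultured with fluconazole at 8 µg/mL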
[8] = target: T6, Corticotropin-releasing factor receptor 2/Corticotropin-releasing factor-binding protein (Homo sapiens, UniProt P24387+Q13324); assay: Dose Response confirmation of uHTS hits for small molecule antagonists of the CRF-binding protein and CRF-R2 receptor complex.; assay type: functional; settings: read-out: IC50_Mean
T6 sequence (Q13324 whole entry): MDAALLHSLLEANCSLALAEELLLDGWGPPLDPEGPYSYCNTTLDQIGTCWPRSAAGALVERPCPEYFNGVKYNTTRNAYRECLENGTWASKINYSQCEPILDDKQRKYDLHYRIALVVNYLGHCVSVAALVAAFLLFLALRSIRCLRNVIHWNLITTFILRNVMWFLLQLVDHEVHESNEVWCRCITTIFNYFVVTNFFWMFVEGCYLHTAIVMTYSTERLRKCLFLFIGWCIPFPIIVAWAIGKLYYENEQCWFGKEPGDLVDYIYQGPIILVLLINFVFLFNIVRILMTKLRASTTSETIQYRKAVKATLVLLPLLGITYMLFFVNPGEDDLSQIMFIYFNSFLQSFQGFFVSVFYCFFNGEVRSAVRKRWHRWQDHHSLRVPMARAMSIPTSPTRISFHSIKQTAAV
T6 sequence (P24387 whole entry): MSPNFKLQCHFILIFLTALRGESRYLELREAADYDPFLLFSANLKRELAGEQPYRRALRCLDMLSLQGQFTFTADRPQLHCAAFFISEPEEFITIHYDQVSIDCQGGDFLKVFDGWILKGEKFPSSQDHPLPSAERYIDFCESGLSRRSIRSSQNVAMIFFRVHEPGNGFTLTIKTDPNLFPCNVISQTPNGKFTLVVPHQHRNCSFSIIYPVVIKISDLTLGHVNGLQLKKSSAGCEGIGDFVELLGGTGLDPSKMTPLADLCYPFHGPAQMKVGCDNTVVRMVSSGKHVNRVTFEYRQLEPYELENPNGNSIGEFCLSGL

[9] = CRF-BP/CRF-R2 complex antagonists, dose response, cell-based, uHTS hits, 384-well (AID 651639); assay type: functional, Homo sapiens; settings: read-out: IC50_Mean
[10] = target: T6, Corticotropin-releasing factor receptor 2/Corticotropin-releasing factor-binding protein; assay: activators of CRF receptor 2 with binding protein – uHTS hits, confirmation (AID 602473); assay type: functional; settings: read-out: EC50_Mean
[11] = target: SWI/SNF-related matrix-associated actin-dependent regulator of chromatin subfamily A member 2 (Homo sapiens, UniProt P51531); assay: Luminescence-based cell-based high throughput dose response assay to identify activators of the function of SWI/SNF related, matrix associated, actin dependent regulator of chromatin, subfamily a, member 2 (SMARCA2, BRM).; assay type: functional
Sequence of SWI/SNF-related matrix-associated actin-dependent regulator of chromatin subfamily A member 2 (P51531 whole entry): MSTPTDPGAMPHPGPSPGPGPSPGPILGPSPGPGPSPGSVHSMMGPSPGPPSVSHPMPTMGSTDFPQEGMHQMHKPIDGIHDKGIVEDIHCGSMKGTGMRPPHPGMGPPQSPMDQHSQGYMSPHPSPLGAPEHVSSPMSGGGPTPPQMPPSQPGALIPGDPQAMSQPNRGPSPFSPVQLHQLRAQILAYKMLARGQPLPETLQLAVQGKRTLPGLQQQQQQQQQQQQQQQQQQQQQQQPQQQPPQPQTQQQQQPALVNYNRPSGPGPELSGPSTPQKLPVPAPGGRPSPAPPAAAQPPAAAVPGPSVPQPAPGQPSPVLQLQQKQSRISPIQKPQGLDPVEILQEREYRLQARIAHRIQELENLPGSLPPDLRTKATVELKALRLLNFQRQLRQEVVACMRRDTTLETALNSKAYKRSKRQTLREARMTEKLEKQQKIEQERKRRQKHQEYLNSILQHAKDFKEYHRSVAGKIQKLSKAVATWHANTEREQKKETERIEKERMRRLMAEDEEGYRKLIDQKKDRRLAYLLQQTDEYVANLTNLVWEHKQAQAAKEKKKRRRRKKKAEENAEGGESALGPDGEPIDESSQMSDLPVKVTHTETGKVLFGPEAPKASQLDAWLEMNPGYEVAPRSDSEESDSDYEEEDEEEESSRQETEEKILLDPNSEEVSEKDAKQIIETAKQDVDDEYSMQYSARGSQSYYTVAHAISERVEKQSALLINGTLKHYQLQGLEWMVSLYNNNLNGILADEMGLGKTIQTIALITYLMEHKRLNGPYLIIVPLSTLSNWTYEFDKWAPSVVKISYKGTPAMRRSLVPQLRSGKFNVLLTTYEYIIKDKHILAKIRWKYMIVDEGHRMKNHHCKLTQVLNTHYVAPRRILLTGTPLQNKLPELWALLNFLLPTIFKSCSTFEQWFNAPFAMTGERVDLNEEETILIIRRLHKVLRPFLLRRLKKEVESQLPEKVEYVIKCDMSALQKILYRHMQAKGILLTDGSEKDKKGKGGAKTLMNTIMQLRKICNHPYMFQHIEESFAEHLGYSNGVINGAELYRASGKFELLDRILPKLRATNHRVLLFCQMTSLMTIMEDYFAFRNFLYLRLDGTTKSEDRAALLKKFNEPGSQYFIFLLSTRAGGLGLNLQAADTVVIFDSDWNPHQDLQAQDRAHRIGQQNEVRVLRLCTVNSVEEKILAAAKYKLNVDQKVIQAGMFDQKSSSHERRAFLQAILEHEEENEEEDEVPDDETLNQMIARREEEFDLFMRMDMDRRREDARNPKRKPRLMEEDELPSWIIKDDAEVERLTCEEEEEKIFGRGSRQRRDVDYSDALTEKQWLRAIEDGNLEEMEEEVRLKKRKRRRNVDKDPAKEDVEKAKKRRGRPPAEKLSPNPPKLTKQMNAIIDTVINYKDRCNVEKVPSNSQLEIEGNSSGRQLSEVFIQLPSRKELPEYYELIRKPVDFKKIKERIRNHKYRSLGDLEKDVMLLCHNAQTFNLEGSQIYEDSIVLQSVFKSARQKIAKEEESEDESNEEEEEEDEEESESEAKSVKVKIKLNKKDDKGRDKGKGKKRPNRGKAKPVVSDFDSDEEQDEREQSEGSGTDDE

[12] = Counterscreen for activators of the function of SWI/SNF related, matrix associated, actin dependent regulator of chromatin, subfamily a, member 2 (SMARCA2, BRM): Luminescence-based cell-based high throughput dose response assay to identify non-selective compounds using the VP16 reporter assay.; assay type: functional
[13] = target: T7, Fructose-bisphosphate aldolase (Mycobacterium tuberculosis, UniProt P9WQA3); assay: Fluorescence-based biochemical high throughput dose response assay for inhibitors of the fructose-bisphosphate aldolase (FBA) of M. tuberculosis.; assay type: functional
T7 sequence (P9WQA3 whole entry): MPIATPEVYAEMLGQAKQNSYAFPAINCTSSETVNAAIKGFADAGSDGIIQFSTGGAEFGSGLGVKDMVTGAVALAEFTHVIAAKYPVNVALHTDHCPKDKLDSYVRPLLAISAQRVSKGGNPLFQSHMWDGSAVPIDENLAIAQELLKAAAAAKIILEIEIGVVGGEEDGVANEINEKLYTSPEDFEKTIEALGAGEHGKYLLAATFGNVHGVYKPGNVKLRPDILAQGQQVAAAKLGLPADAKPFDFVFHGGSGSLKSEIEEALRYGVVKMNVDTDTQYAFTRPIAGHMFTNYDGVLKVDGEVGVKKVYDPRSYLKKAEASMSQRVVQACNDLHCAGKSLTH

[14] = Shn3 3'UTR reporter inhibitors, dose response, cell-based, Clone20 osteoblasts, firefly luciferase, cherry-picked (AID 624132); assay type: functional;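 note: firefly luciferase luminescence from reporter carrying the Shn3 3'UTR in osteoblasts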
[15] = control 3'UTR Renilla luciferase suppression, dose response, counter-screen for Shn3 inhibitor project, cell-based, Clone20-Shn3RL, cherry-picked (AID 624133); assay type: functional
[16] = P. falciparum late gametocyte killing, dose response, luminescence (AID 1117278); assay type: functional, cell-based;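 note: gametocytes exposed to compound for 24 hours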
[17] = Jurkat T cell cytotoxicity, dose response, cytotoxicity control for P. falciparum gametocyte viability project, luminescence (AID 1117277); assay type: functional, cell-based;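 note: potency reflects loss of cellular ATP meaning fewer viable cells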

COCCNC(=O)c1ccc(CS(=O)(=O)c2c(Cl)cccc2Cl)o1
IC50 (Protein Tat): > 100 µM (active)

N#Cc1ccccc1CN1C(=O)S/C(=C/c2cccn2-c2cccc(C(=O)O)c2)C1=O
EC50 [1]: > 300 µM (not active) | IC50 [2]: 37 µM (active) | IC50 [3]: 5.19 µM (active) | IC50 (Protein Tat): > 100 µM (active) | EC50 [4]: > 300 µM (not active) | IC50 (Large T antigen): > 100 µM (active) | IC50 [5]: 14.9 µM (active)

CC(=O)c1ccc(NC(=O)C2CC(=O)N(Cc3ccccc3)C2)cc1 (centres undefined)
AC50 [6]: 5.19 µM (active)

O=C(O)c1cnc(-c2ccccc2)nc1Sc1ccc(Cl)cc1
EC50 [7]: 98.3 µM (inconclusive) | IC50 [8]: 16.8 µM (active) | IC50 [9]: > 20 µM (inactive) | EC50 [10]: > 53 µM (inactive)

CCN(CC)C(=O)CSc1nnc(-c2cccc(OC)c2)o1
EC50 [11]: > 91.1 µM (inactive) | EC50 [12]: > 91.1 µM (inactive)

Cc1cc(C)nc(SCc2nc3ncccn3c2Br)n1
IC50 [13]: 1.47 µM (active)

CS(=O)(=O)c1ccc(C(=O)OCC(=O)N2CCOCC2)cc1[N+](=O)[O-]
EC50 [11]: > 91.2 µM (inactive) | AC50 [14]: 17.5 µM (active) | EC50 [12]: > 91.2 µM (inactive) | AC50 [15]: 27.9 µM (active)

Cc1cccc(OCCN2C(=O)c3ccccc3C2=O)c1
IC50 [16]: > 109 µM (inactive) | IC50 [17]: > 83.2 µM (inactive)

Cc1cc(C)n(Cc2ccc(Cl)nc2)n1
IC50 [16]: > 109 µM (inactive) | IC50 [17]: > 83.3 µM (inactive)
